Assay results published in ChEMBL document CHEMBL1828565, “Potential AMPK activators of cucurbitane triterpenoids from Siraitia grosvenorii Swingle” (Bioorg Med Chem, 2011).
Activity calls are given as the source filed them. The calls are words filed in the database; no cut-off is given here.

Experiments:
[1] = biological target: T1, AMP-activated protein kinase, AMPK (Homo sapiens) (UniProt P54646+O43741+P54619+Q9UGJ0+Q9Y478+Q13131+Q9UGI9); experiment: Activation of AMPK in human HepG2 cells assessed as increase in AMPK phosphorylation at 1 to 20 uM after 30 mins by Western blotting; type: cell-based
[2] = biological target: T1, AMP-activated protein kinase, AMPK (Homo sapiens); experiment: Activation of AMPK in human HepG2 cells assessed as increase in AMPK phosphorylation at 10 uM after 30 mins by Western blotting; type: cell-based

Row | Structure (SMILES) | Activity [1] | Activity [2]
1 | C[C@H](CC[C@@H](O[C@@H]1O[C@H](CO[C@@H]2O[C@H](CO)[C@@H](O)[C@H](O)[C@H]2O)[C@@H](O)[C@H](O)[C@H]1O[C@@H]1O[C@H](CO)[C@@H](O)[C@H](O)[C@H]1O)C(C)(C)O)[C@H]1CC[C@@]2(C)[C@@H]3CC=C4[C@@H](CC[C@H](O[C@@H]5O[C@H](CO[C@@H]6O[C@H](CO)[C@@H](O)[C@H](O)[C@H]6O)[C@@H](O)[C@H](O)[C@H]5O)C4(C)C)[C@]3(C)[C@H](O)C[C@]12C | inactive | 
2 | COC(C)(C)[C@H](O)CC[C@@H](C)[C@H]1CC[C@@]2(C)[C@@H]3CC=C4[C@@H](CC[C@H](O)C4(C)C)[C@]3(C)C(=O)C[C@]12C | Active | 
3 | COc1ccc2cc3[n+](cc2c1OC)CCc1cc2c(cc1-3)OCO2 | Active | 
4 | C[C@H](CC[C@@H](O)C(C)(C)O)[C@H]1CC[C@@]2(C)[C@@H]3CC=C4[C@@H](CC[C@H](O)C4(C)C)[C@]3(C)[C@H](O)C[C@]12C | Active | 
5 | CC(C)C(=O)CC[C@@H](C)[C@H]1CC[C@@]2(C)[C@@H]3CC=C4[C@@H](CC[C@H](O)C4(C)C)[C@]3(C)[C@H](O)C[C@]12C | Active | 

Now from value to molecule:

Row | Activity [1] | Activity [2] | Structure (SMILES)
6 | Active |  | C[C@H](CC[C@@H](O)C(C)(C)O)[C@H]1CC[C@@]2(C)[C@@H]3CC=C4[C@@H](CC[C@@H](O)C4(C)C)[C@]3(C)[C@H](O)C[C@]12C
7 |  | Active | CC(C)C(=O)CC[C@@H](C)[C@H]1CC[C@@]2(C)[C@@H]3CC=C4[C@@H](CC[C@@H](O)C4(C)C)[C@]3(C)[C@H](O)C[C@]12C
8 | Active |  | COC(C)(C)[C@H](O)CC[C@@H](C)[C@H]1CC[C@@]2(C)[C@@H]3CC=C4[C@@H](CC[C@H](O)C4(C)C)[C@]3(C)[C@H](O)C[C@]12C
9 | Active |  | C[C@H](CC[C@@H](O)C(C)(C)O)[C@H]1CC[C@@]2(C)[C@@H]3CC=C4[C@@H](CC[C@H](O)C4(C)C)[C@]3(C)C(=O)C[C@]12C
10 | Active |  | CC(C)C(=O)CC[C@@H](C)[C@H]1CC[C@@]2(C)[C@@H]3CC=C4[C@@H](CC[C@H](O)C4(C)C)[C@]3(C)C(=O)C[C@]12C
